From patent publication US6531628B1, “Substantive water-soluble 2-hydroxy sulfobetaines of cinnamidoalkylamines” (Galaxy Surfactants Ltd., priority 2001, dated 2003)
“Also recorded” adds a separate entry of the source.

Legend:
[1] = Molar extinction coefficient (UV absorption); format: physicochemical; conditions: at λmax 306 nm in water
[2] = Compatibility with anionic surfactant in formulation; format: physicochemical; conditions: sodium lauryl ether sulphate based transparent shampoo / transparent bathing bar; N,N-dimethyl ammonium)-2-hydroxy propane-1-sulph
Description: The major ingredients were mixed with heating to 50° C. until a uniform homogeneous mixture was formed. The resulting mixture was then cooled to room temperature with continuous stirring. The required chelating agent, colour, perfume were added. The viscosity was adjusted to 2500 cps with sodium chloride.
All ingredients were heated together under stirring to 70° C. till the reaction mass became homogenous and transparent. The reaction mass was cooled to 40° C. and the required amounts of chelating agents, perfume and colour were added. The molten mass was cast in moulds of desired shape to yield transparent bathing bar.

molar extinction coefficient, ∈ [1]: 24,000
SMILES: COc1ccc(C=CC(=O)NCCC[N+](C)(C)CC(O)CS(=O)(=O)[O-])cc1 (centres unmarked) [Example I, 3-(N-p-Methoxy Cinnamidopropyl, N,N-Dimethyl Ammonium)-2-hydroxy Propane-1-sulphonate]
compatibility with anionic surfactant [2]: completely compatible; also recorded: total compatibility
